{"source": "patent US20260216201A1", "about": "(priority 2025, published 2026)", "origin": "cited, not measured here", "settings": "n-octanol/buffer pH 7.4"}
{"smiles": "Cc1cnc(NC(=O)C2=C(O)c3ccccc3S(=O)(=O)N2C)s1", "note": "[Meloxicam, 4-hydroxy-2-methyl-N-(5 methyl-2-thiazolyl)-2H-1,2-benzothiazine-3-carboxamide-1,1-dioxide]", "values": [{"measurement": "apparent partition coefficient (log P)", "result": 0.1}]}
